Data from US11292781B2, “Pyrimidine tricyclic enone derivatives for inhibition of ROR-gamma and other uses” (REATA PHARMACEUTICALS, INC., priority 2016, dated 2022).

How the values were obtained:
[1] = tested on: Nrf2 transcription factor (GST ARE luciferase reporter in AREc32 cells); experiment: AREc32 luciferase reporter assay; assay type: cell-based, human; settings: EC2×: concentration required to increase GST ARE luciferase reporter activity by 2-fold, 19 hours
Summary of the method: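 AREc32 cells (MCF-7 carrying luciferase under eight rat GSTA2 ARE copies) treated with compound; luciferase measured by ONE-Glo luminescence. Signal normalised to DMSO wells as fold-induction, fitted by variable-slope log(agonist)-response regression, with EC2× interpolated from the curve.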

[2] = tested on: IL-17A levels in primary human CD4+ T cells differentiated into Th17 cells; experiment: IL-17 release from differentiated primary human T-cells (IL-17A HTRF); assay type: cell-based; settings: primary human CD4+ T cells, Th17 differentiation, 46-hour incubation; read-out: hIL17 IC50
Method: C. IL-17 Release from Differentiated Primary Human T-Cells and Cell Viability Primary human cryopreserved CD4+ T Cells (Lonza, donor #0000402103) were plated in Lymphocyte Growth Medium-3 (LGM-3, Lonza) according to the manufacturer's recommendations, and allowed to recover for approximately 3 hours at 37° C. with 5% CO2 in a humidified atmosphere. […] Triplicate wells were plated for each test condition. DMSO (final concentration ≤0.1%) was used as the vehicle. Immediately after plating, CD4+ T cells were activated by adding Dynabeads Human T-Activator CD3/CD28 (Life Technologies; bead-to-cell ratio of 1:2.5) and differentiated into Th17 cells by adding a mixture of the following cytokines: transforming growth factor-β (TGF-β, 5 ng/mL), IL-6 (20 ng/mL), IL-23 (20 ng/mL), and […] (10 ng/mL). Undifferentiated control cells received only cytokine IL-2 (50 ng/mL). All human recombinant cytokines were purchased from R&D Systems. Following a 46-hour incubation at 37° C. with 5% CO2 in a humidified atmosphere, the plates were centrifuged for 3 minutes at 250×g, and half of the supernatant was transferred to a new plate to be used in the IL-17A assay (see below). Cell viability was assessed in the original plate using the CyQuant Direct Assay (Life Technologies). CyQuant values from test compound samples were normalized to those from DMSO-treated samples. The concentration of IL-17A in the supernatant was measured using the Homogeneous Time-Resolved Fluorescence (HTRF) assay (Cisbio Bioassays) according to the manufacturer's protocol. The assay was performed at room temperature in low volume, solid white 384-well plates (Greiner Bio-One). […] A non-linear regression analysis with log (inhibitor) vs. normalized response using a variable slope was applied to fit the data and determine the IC50 values for inhibition of IL-17A levels and cell viability.

Question: C[C@H]1C(=O)C(C#N)=C[C@@]2(C)c3nc(-c4ccnc5c(F)cccc45)nc(OC4CCCC4)c3CC[C@H]12 [T121] was tested. Which “HRF2 ARE 2×” value [1] did it give?
Answer: 390 nM

Question: And the IC50 [2]?
Answer: 36 nM

Question: For CC1(C)C(=O)C(C#N)=C[C@@]2(C)c3nc(-c4cc(CF)nc5ccccc45)nc(-c4ccccc4F)c3CC[C@H]12 [T122], which “HRF2 ARE 2×” value [1] is on record?
Answer: 402 nM

Question: What about the IC50 [2] of the same compound?
Answer: 31 nM

Question: Which results are given for CC(C)c1cc(-c2nc(-c3ccccc3F)c3c(n2)[C@]2(C)C=C(C#N)C(=O)[C@H](C)[C@H]2CC3)c2ccccc2n1 [T123]?
Answer: HRF2 ARE 2× [1]: 371 nM; IC50 [2]: 20 nM

Question: What does the source list for CCC[C@@]1(C)C(=O)C(C#N)=C[C@@]2(C)c3nc(-c4ccnc5ccccc45)nc(-c4ccccc4F)c3CC[C@H]12 [T124]?
Answer: HRF2 ARE 2× [1]: 220 nM; IC50 [2]: 22 nM

Question: Which “HRF2 ARE 2×” value [1] does the source give for CC1(C)C(=O)C(C#N)=C[C@@]2(C)c3nc(-c4ccnc(C5CC5)c4)nc(-c4ccccc4F)c3CC[C@H]12 [T125] here?
Answer: 549 nM

Question: And the IC50 [2]?
Answer: 27 nM

Question: Which results are given for CC[C@@]1(C)C(=O)C(C#N)=C[C@@]2(C)c3nc(-c4ccnc5ccccc45)nc(-c4ccccc4F)c3CC[C@H]12 [T126]?
Answer: HRF2 ARE 2× [1]: 280 nM; IC50 [2]: 36 nM

Question: How did the “HRF2 ARE 2×” value [1] turn out when CC1(C)C(=O)C(C#N)=C[C@@]2(C)c3nc(-c4ccnc5c(F)cccc45)nc(-c4ccccc4F)c3CC[C@H]12 [T127] was run?
Answer: 343 nM

Question: What about the IC50 [2] of the same compound?
Answer: 36 nM

Question: With C[C@H]1C(=O)[C@@]2(C#N)O[C@H]2[C@@]2(C)c3nc(-c4ccnc5ccccc45)nc(-c4ccccc4F)c3CC[C@H]12 [T132] as the compound, how does the “HRF2 ARE 2×” value [1] read?
Answer: 437 nM

Question: And the IC50 [2]?
Answer: 74 nM

Question: With C[C@]1(CCCO)C(=O)C(C#N)=C[C@@]2(C)c3nc(-c4ccnc(C5CC5)c4)nc(-c4ccccc4F)c3CC[C@H]12 [T136] as the compound, how does the “HRF2 ARE 2×” value [1] read?
Answer: 518 nM

Question: And the IC50 [2]?
Answer: 25 nM

Question: With CCC[C@@]1(C)C(=O)C(C#N)=C[C@@]2(C)c3nc(-c4ccnc(C5CC5)c4)nc(-c4ccccc4F)c3CC[C@H]12 [T137] as the compound, how does the “HRF2 ARE 2×” value [1] read?
Answer: 274 nM

Question: What about the IC50 [2] of the same compound?
Answer: 9 nM

Question: Which results are given for C[C@H]1C(=O)C(C#N)=C[C@@]2(C)c3nc(-c4ccnc5ccccc45)nc(N4CCCC4)c3CC[C@H]12 [T138]?
Answer: HRF2 ARE 2× [1]: 641 nM; IC50 [2]: 167 nM

Question: With C[C@H]1C(=O)C(C#N)=C[C@@]2(C)c3nc(-c4ccc(C5CC5)nc4)nc(-c4ccccc4F)c3CC[C@H]12 [T140] as the compound, how does the “HRF2 ARE 2×” value [1] read?
Answer: 451 nM

Question: What about the IC50 [2] of the same compound?
Answer: 26 nM

Question: For C[C@H]1C(=O)C(C#N)=C[C@@]2(C)c3nc(-c4ccc(-c5ccccc5)nc4)nc(-c4ccccc4F)c3CC[C@H]12 [T141], which “HRF2 ARE 2×” value [1] is on record?
Answer: 557 nM

Question: And the IC50 [2]?
Answer: 22 nM

Question: C[C@H]1C(=O)C(C#N)=C[C@@]2(C)c3nc(-c4ccc(CCS(C)(=O)=O)nc4)nc(-c4ccccc4F)c3CC[C@H]12 [T142] was tested. Which “HRF2 ARE 2×” value [1] did it give?
Answer: 217 nM

Question: And the IC50 [2]?
Answer: 77 nM

Question: For C[C@H]1C(=O)C(C#N)=C[C@@]2(C)c3nc(-c4ccnc(CS(C)(=O)=O)c4)nc(-c4ccccc4F)c3CC[C@H]12 [T143], which “HRF2 ARE 2×” value [1] is on record?
Answer: 538 nM

Question: And the IC50 [2]?
Answer: 94 nM

Question: Which “HRF2 ARE 2×” value [1] does the source give for C[C@H]1C(=O)C(C#N)=C[C@@]2(C)c3nc(-c4ccnc(CCS(C)(=O)=O)c4)nc(-c4ccccc4F)c3CC[C@H]12 [T144] here?
Answer: 299 nM

Question: And the IC50 [2]?
Answer: 72 nM

Question: With C[C@H]1C(=O)C(C#N)=C[C@@]2(c3ccccc3)c3nc(-c4ccnc5ccccc45)nc(-c4ccccc4F)c3CC[C@H]12 [T148] as the compound, how does the “HRF2 ARE 2×” value [1] read?
Answer: 1758 nM

Question: What about the IC50 [2] of the same compound?
Answer: 77 nM

Question: Which results are given for CC1(C)C(=O)C(C#N)=C[C@@]2(C)c3nc(-c4cccc5ncccc45)nc(-c4ccccc4F)c3CC[C@H]12 [T149]?
Answer: HRF2 ARE 2× [1]: 330 nM; IC50 [2]: 14 nM

Question: How did the “HRF2 ARE 2×” value [1] turn out when CCOC(=O)CCc1cc(-c2nc(-c3ccccc3F)c3c(n2)[C@]2(C)C=C(C#N)C(=O)[C@H](C)[C@H]2CC3)ccn1 [T151] was run?
Answer: 1111 nM

Question: And the IC50 [2]?
Answer: 54 nM

Question: What does the source list for C[C@H]1C(=O)C(C#N)=C[C@@]2(C)c3nc(-c4ccnc(CCC(=O)N(C)C)c4)nc(-c4ccccc4F)c3CC[C@H]12 [T152]?
Answer: HRF2 ARE 2× [1]: 323 nM; IC50 [2]: 46 nM

Question: With CCS(=O)(=O)CCc1cc(-c2nc(-c3ccccc3F)c3c(n2)[C@]2(C)C=C(C#N)C(=O)[C@H](C)[C@H]2CC3)ccn1 [T153] as the compound, how does the “HRF2 ARE 2×” value [1] read?
Answer: 282 nM

Question: What about the IC50 [2] of the same compound?
Answer: 52 nM

Question: For CCS(=O)(=O)Cc1cc(-c2nc(-c3ccccc3F)c3c(n2)[C@]2(C)C=C(C#N)C(=O)[C@H](C)[C@H]2CC3)ccn1 [T154], which “HRF2 ARE 2×” value [1] is on record?
Answer: 469 nM

Question: What about the IC50 [2] of the same compound?
Answer: 65 nM

Question: What does the source list for CCC[C@@]12C=C(C#N)C(=O)C[C@H]1CCc1c(-c3ccccc3F)nc(-c3ccnc(CF)c3)nc12 [T155]?
Answer: HRF2 ARE 2× [1]: 267 nM; IC50 [2]: 71 nM

Question: Which results are given for CCC[C@@]12C=C(C#N)C(=O)C[C@H]1CCc1c(-c3ccccc3F)nc(-c3ccnc4ccccc34)nc12 [T156]?
Answer: HRF2 ARE 2× [1]: 333 nM; IC50 [2]: 54 nM

Question: Which “HRF2 ARE 2×” value [1] does the source give for C[C@]1(CC2CC2)C(=O)C(C#N)=C[C@@]2(C)c3nc(-c4ccnc5ccccc45)nc(-c4ccccc4F)c3CC[C@H]12 [T157] here?
Answer: 304 nM

Question: What about the IC50 [2] of the same compound?
Answer: 23 nM

Question: For CCC[C@H]1C(=O)C(C#N)=C[C@@]2(C)c3nc(-c4cccc5ncccc45)nc(-c4ccccc4F)c3CC[C@H]12 [T159], which “HRF2 ARE 2×” value [1] is on record?
Answer: 337 nM

Question: And the IC50 [2]?
Answer: 22 nM

Question: What does the source list for CC(C)c1cccc(-c2nc(-c3ccnc4ccccc34)nc3c2CC[C@@H]2[C@@H](C)C(=O)C(C#N)=C[C@@]32C)c1 [T160]?
Answer: HRF2 ARE 2× [1]: 418 nM; IC50 [2]: 22 nM

Question: Which results are given for C[C@H]1C(=O)C(C#N)=C[C@@]2(C)c3nc(-c4ccnc5ccccc45)nc(-c4cccc(-c5ccccc5)c4)c3CC[C@H]12 [T162]?
Answer: HRF2 ARE 2× [1]: 601 nM; IC50 [2]: 50 nM

Question: How did the “HRF2 ARE 2×” value [1] turn out when CC(C)CC[C@@]12C=C(C#N)C(=O)C[C@H]1CCc1c(-c3ccccc3F)nc(-c3ccnc4ccccc34)nc12 [T164] was run?
Answer: 1059 nM

Question: What about the IC50 [2] of the same compound?
Answer: 352 nM

Question: CC(C)CC[C@@]12C=C(C#N)C(=O)C[C@H]1CCc1c(-c3ccccc3F)nc(-c3ccnc(CF)c3)nc12 [T165] was tested. Which “HRF2 ARE 2×” value [1] did it give?
Answer: 863 nM

Question: What about the IC50 [2] of the same compound?
Answer: 65 nM

Question: C=C(C)C[C@@]1(C)C(=O)C(C#N)=C[C@@]2(C)c3nc(-c4ccnc5ccccc45)nc(-c4ccccc4F)c3CC[C@H]12 [T166] was tested. Which “HRF2 ARE 2×” value [1] did it give?
Answer: 878 nM

Question: What about the IC50 [2] of the same compound?
Answer: 31 nM

Question: CCC[C@@]12C=C(C#N)C(=O)C[C@H]1CCc1c(-c3ccccc3F)nc(-c3ccnc(C4CC4)c3)nc12 [T167] was tested. Which “HRF2 ARE 2×” value [1] did it give?
Answer: 493 nM

Question: And the IC50 [2]?
Answer: 106 nM

Question: How did the “HRF2 ARE 2×” value [1] turn out when CCC[C@H]1C(=O)C(C#N)=C[C@@]2(CCC)c3nc(-c4ccnc(C5CC5)c4)nc(-c4ccccc4F)c3CC[C@H]12 [T168] was run?
Answer: 1239 nM

Question: What about the IC50 [2] of the same compound?
Answer: 32 nM

Question: C[C@@H]1C(=O)C(C#N)=C[C@@]2(C)c3nc(-c4ccnc5ccccc45)nc(-c4ccccc4F)c3CC[C@@H]12 [T175] was tested. Which “HRF2 ARE 2×” value [1] did it give?
Answer: >2000 nM

Question: And the IC50 [2]?
Answer: 329 nM

Question: Which results are given for C[C@H]1C(=O)C(C#N)=C[C@@]2(C)c3nc(-c4ccnc5ccccc45)nc(-c4ccccc4F)c3CC[C@@H]12 [T176]?
Answer: HRF2 ARE 2× [1]: >2000 nM; IC50 [2]: 455 nM

Question: What does the source list for CC(=O)NCCc1cc(-c2nc(-c3ccccc3F)c3c(n2)[C@]2(C)C=C(C#N)C(=O)[C@H](C)[C@H]2CC3)ccn1 [T178]?
Answer: HRF2 ARE 2× [1]: 444 nM; IC50 [2]: 130 nM

Question: Which “HRF2 ARE 2×” value [1] does the source give for C[C@H]1C(=O)C(C#N)=C[C@@]2(C)c3nc(-c4ccncc4-c4ccccc4)nc(-c4ccccc4F)c3CC[C@H]12 [T179] here?
Answer: 649 nM

Question: What about the IC50 [2] of the same compound?
Answer: 27 nM

Question: For C[C@H]1C(=O)C(C#N)=C[C@@]2(C)c3nc(-c4ccncc4C4CC4)nc(-c4ccccc4F)c3CC[C@H]12 [T180], which “HRF2 ARE 2×” value [1] is on record?
Answer: 494 nM

Question: And the IC50 [2]?
Answer: 21 nM

Question: How did the “HRF2 ARE 2×” value [1] turn out when C[C@H]1C(=O)C(C#N)=C[C@@]2(C)c3nc(-c4cccc5ncccc45)nc(-c4ccccc4)c3CCC[C@H]12 [T183] was run?
Answer: 1868 nM

Question: And the IC50 [2]?
Answer: 70 nM
